Test results as given in US20170209579A1, “NON-INVASIVE RADIOFREQUENCY FIELD TREATMENT FOR CANCER THERAPY” (Baylor College of Medicine, priority 2014, published 2017).

Tests used:
Hep3B cells = assay: Cell cycle analysis (BrdU flow cytometry) in Hep3B cells; assay type: cell-based, human
Protocol: For cell cycle analysis a BrdU-labeling protocol from BrdU Flow Kit (BD Pharmingen, San Diego, Calif.) was used according to the supplied instructions. Data was analyzed using FlowJo 7.63 (Tree Star, Inc., Ashland, Oreg.). For cell cycle analysis, a BrdU-labeling protocol was used to identify cells in S-phase of the cell cycle accurately. Cells were harvested from an exponentially growing culture as described for other experiments and seeded in 6-well plates, approximately 150,000 cells per well. After 24-hours adherent sub-confluent monolayers were noted and cells were exposed to various experimental conditions. At the end of the treatments, cells were washed and sampled at various time points to study the progression of the cell cycle in time. One hour before each time point, cells were pulsed with BrdU (10 μM) for 1 hour. BrdU gets incorporated in the DNA of cells in S-phase along with other nucleotides and can be detected using a mouse FITC conjugated anti-BrdU antibody. A BrdU Flow Kit (BD Pharmingen, San Diego, Calif.) was used according to the supplied instructions without modifications. For counterstaining of DNA content, cells were incubated with 7-amino-actinomycin D (7-AAD) supplied with the kit, on ice for 20 minutes before analysis on a BD LSR II flowcytometer (BD biosciences San Jose, Calif.). Single cell populations were identified using forward and side-scatter profiles. A total of 10,000 events were recorded from a gated single cell population. For 7-AAD fluorescence measurements, a SORP YG laser (561 nm) was used to excite the cells and emission was recorded through a 630LP filter followed by a 660/20 filter. For FITC fluorescence measurements, a SORP blue laser (488 nm) was used to excite the cells and emission was recorded through 505LP filter followed by a 525/50 filter. There was no spectral over-lap between the two emission spectra and compensation was not required. Data was analyzed using FlowJo 7.63 (Tree Star, Inc., Ashland, Oreg.). […] Cell cycle progression was analyzed over time (FIGS. 16 and 17). […]

SNU449 cells = assay: Clonogenic assay, SNU449 cells; assay type: cell-based, human; conditions: irrespective of dose schedule
Protocol: Clonogenic assay estimates single-cell reproductive viability by measuring the ability of a single cell to form a colony of 50 cells or more. Clonogenic assay in this study was performed as described previously (Franken et al., 2006). Briefly, cancer cells from an exponentially growing, sub-confluent culture were trypsinized and harvested. Approximately 200 cells were counted and plated in each well of a 6-well plate. Approximately 12 hours later, the cells were adherent and treatment conditions were introduced as described herein. After varying treatments, media was replaced and cells were allowed 14 days to form colonies. Subsequently, the media was aspirated and cells were washed with PBS once. Colonies were then fixed with glutaraldehyde (6.0% v/v) and stained with crystal violet (0.5% w/v) for 30 minutes on a leveled shaker at 50 RPM. The fixation and staining solution was then aspirated and the 6-well plates were air-dried after gentle rinsing with tap water. The number of colonies in each well was counted using a colony counting grid. […]
Clonogenic assays were performed on Hep3B cells and SNU449 cells after one of two combinations of hyperthermia and gemcitabine compared with hyperthermia or gemcitabine alone. […] Next, clonogenic viability was evaluated at a gemcitabine concentration of 5 ng/ml and varied the duration of hyperthermia (30 minutes to 4 hours).

[1] = test system: γ-H2AX in Hep3B xenografts; assay: γ-H2AX fluorescence immunohistochemistry in Hep3B xenografts; assay type: in vivo, mouse
Protocol: (30A) Sites of DNA damage were evaluated using fluorescence immunohistochemistry for γ-H2AX. Also note the increased nuclear fragmentation in the DAPI channel for combination therapy groups.
Tumor tissues harvested at the end of the experiment were fixed in 10% buffered formalin (pH 7.0) for 24 hours and subsequently stored in 70% ethanol (v/v) before embedding them in paraffin. For immunohistochemistry, 5-micron sections were placed on a glass slide and tissue sections were de-paraffinized and rehydrated. Antigen retrieval was performed in citrate buffer at pH 6.0. The slides were placed in Tris-buffer (pH 8.0) before further processing.
For fluorescence immunohistochemistry, a protocol similar to that used for immunocytochemistry (described above) was used with some modifications described here. Tris-buffer was removed and tumor section was encircled using a pap pen (Electron microscopy sciences, Hatfield, Pa.). For blocking, 5% (w/v) BSA and 3% (v/v) NGS was used instead of 3% BSA and 1% NGS, respectively. Imaging was performed as for immunocytochemistry.
Development of mouse models and details of RF exposure and thermography are discussed in FIGS. 25 and 26. Mice bearing Hep3B orthotopic tumors were randomized to one of five groups: untreated, RF exposure alone, gemcitabine alone, gemcitabine followed 24 hours later by RF exposure, or RF exposure immediately followed by gemcitabine. The treatments were administered twice a week for three weeks for a total of six treatments. The gemcitabine dose administered was […] or 150 mg/kg/week. This is approximately half the dose used in humans (1000 mg/m2/week dose in a 1.7 m human=˜300 mg/kg/week dose in a mouse). Twenty-four hours after the last treatment, mice were killed and tumors were harvested, weighed, and fixed in formalin for later analysis (FIG. 19A). […]

Nc1ccn([C@@H]2O[C@H](CO)[C@@H](O)C2(F)F)c(=O)n1 [gemcitabine, 2′,2′-difluoro 2′-deoxycytidine]
cell cycle progression, gemcitabine followed by hyperthermia compared with gemcitabine alone (Hep3B cells; 1 μM 24 hours, last two hours at 42.5° C.): much slower progression through late-S and G2/M phases | cell cycle progression (Hep3B cells; 1 μM gemcitabine, 24-hour incubation): completely halts cell cycle progression | cell cycle recovery once gemcitabine is removed (Hep3B cells; after 24 hours 1 μM gemcitabine): cells resume synchronized DNA synthesis in 24 hours | clonogenic survival, gemcitabine combined with hyperthermia (SNU449 cells): dose-dependent enhancement of gemcitabine toxicity | Mean γ-H2AX positive pixels/HPF [±SD] ([1]; RF then gemcitabine): 45430±18980 pixels/HPF | Mean γ-H2AX positive pixels/HPF [±SD] ([1]; gemcitabine alone): 27258±8022 pixels/HPF | Mean γ-H2AX positive pixels/HPF [±SD] ([1]; gemcitabine then RF): 46968±10284 pixels/HPF
